The record followed here is patent US12590081B2, “Fused imidazole derivatives, preparation method and medicinal use thereof” (Jiangsu Hengrui Pharmaceuticals Co., Ltd., priority 2020, dated 2026).

SMILES strings stand for the structures.

The target of the first assay is T1, GLP-1 receptor (Homo sapiens, UniProt P43220).
T1 construct: expressed in transfected cells
T1 sequence (P43220 24-463): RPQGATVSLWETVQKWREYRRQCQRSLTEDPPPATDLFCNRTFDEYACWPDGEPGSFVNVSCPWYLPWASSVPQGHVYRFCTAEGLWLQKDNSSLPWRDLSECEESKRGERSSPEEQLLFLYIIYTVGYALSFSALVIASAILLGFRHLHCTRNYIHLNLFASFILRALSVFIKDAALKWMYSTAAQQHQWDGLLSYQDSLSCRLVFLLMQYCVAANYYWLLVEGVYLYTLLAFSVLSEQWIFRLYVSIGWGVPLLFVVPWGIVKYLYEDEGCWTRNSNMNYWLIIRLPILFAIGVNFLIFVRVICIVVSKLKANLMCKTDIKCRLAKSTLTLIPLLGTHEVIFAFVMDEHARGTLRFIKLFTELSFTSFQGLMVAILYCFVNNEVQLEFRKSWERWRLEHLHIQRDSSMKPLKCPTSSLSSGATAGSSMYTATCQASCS
Nature of the assay: Agonist activity against GLP-1 receptor, CRE-luciferase reporter (ONE-Glo) in CHO-K1/CRE-luc/GLP-1 receptor cells. Type of assay: cell-based. As to conditions: 6 h incubation, luciferase readout. The text has this: This experiment was intended to test the agonist activity of the compound molecules against the GLP-1 receptor and evaluate the in vitro activity of the molecules according to EC50. The experiment adopted a ONE-Glo™ Luciferase Assay System (Promega, E6110). Under the action of compound molecules, GLP-1R downstream signaling pathways were activated to cause elevated cAMP level. The combination of cAMP and CRE could start the transcription expression of CRE downstream luciferase genes, the luciferase could emit fluorescence when reacting with substrates thereof, and the activity of the compound for agonizing GLP-1 receptors was reflected by measuring fluorescence signals through a ONE-Glo™ reagent.
Stably-expressed CHO-K1/CRE-luc/GLP-1 receptor cell strains (self-construction of GLP-1 receptor plasmid; CRE-luc plasmid Promega E8471) was constructed. CHO-K1/CRE-luc/GLP-1 receptor cells were digested, and resuspended after centrifugation. Single cell suspension was uniformly mixed, and adjusted to a viable cell density of 2.5×10^5 cell/mL with a cell culture medium (DME/F-12+10% FBS), and the resulting solution was added to a 96-well cell culture plate at 90 μL/well (Corning, #3903). The plate was incubated in an incubator for 16 h (37° C., 5% CO2).
The compound was dissolved in DMSO to prepare a stock solution with an initial concentration of 20 mM. The starting concentration of the small molecule compound was 0.2 mM, and the compound underwent 3-fold serial dilution for a total of 10 concentration points, with DMSO at the 11th point. To another 96-well plate was added 95 μL of cell culture medium (DME/F-12+10% FBS), 5 μL of test samples with different concentrations were added to each well, followed by uniform mixing, and then 10 μL of test samples with different concentrations were added to each well, with two duplicate wells set for each sample. The plate was incubated in an incubator for 6 h (37° C., 5% CO2). The 96-well cell culture plate was taken out, and 100 μL of ONE-Glo™ reagent was added to each well, followed by incubation at room temperature for 10 min. The plate was placed in a microplate reader (EnVision 2105, PE) for determination of chemiluminescence.
Data were processed and analyzed using Microsoft Excel and Graphpad Prism 5.
In general terms: Reporter assays use an easily measured gene product as a stand-in for the process of interest.
Consider `C[C@]1(c2ccc(Cl)cc2F)Oc2cccc(C3=CCN(Cc4nc5ccc(C(=O)O)cc5n4C[C@@H]4CCO4)CC3)c2O1` [Example 4, 2-((4-((S)-2-(4-chloro-2-fluorophenyl)-2-methylbenzo[d][1,3]dioxol-4-yl)-3,6-dihydropyridin-1(2H)-yl)methyl)-1-(((S)-oxetan-2-yl)methyl)-1H-benzo[d]imidazole-6-carboxylic acid], for which the EC50 (as a rule, the midpoint of the concentration-response curve) came to 0.12 nM and the Emax (in general, the size of the effect at its maximum, as opposed to the concentration needed) was 104%.
With `C[C@]1(c2ccc(Cl)cc2F)Oc2cccc(C3=CCN(Cc4nc5ccc(C(=O)O)nc5n4C[C@@H]4CCO4)CC3)c2O1` [Example 7, 2-((4-((S)-2-(4-chloro-2-fluorophenyl)-2-methylbenzo[d][1,3]dioxol-4-yl)-3,6-dihydropyridin-1(2H)-yl)methyl)-3-(((S)-oxetan-2-yl)methyl)-3H-imidazo[4,5-b]pyridine-5-carboxylic acid], the EC50 came out at 0.45 nM and the Emax worked out at 107%.
Consider `CC1(c2ccc(Cl)cc2F)Oc2cccc(C3=CCN(Cc4nc5ccc(C(=O)O)cc5n4C[C@@H]4CCO4)CC3)c2O1` (stereo partly drawn) [Example 2, 2-((4-(2-(4-chloro-2-fluorophenyl)-2-methylbenzo[d][1,3]dioxol-4-yl)-3,6-dihydropyridin-1(2H)-yl)methyl)-1-(((S)-oxetan-2-yl)methyl)-1H-benzo[d]imidazole-6-carboxylic acid], for which the EC50 was 0.92 nM and the Emax came to 110%.
The corresponding values for `N#Cc1ccc(COc2cccc(C3=CCN(Cc4nc5ccc(C(=O)O)cc5n4C[C@@H]4CCO4)CC3)n2)c(F)c1` [Example 1] are 0.12 nM and 110%.
The corresponding values for `CC(Oc1cccc(C2=CCN(Cc3nc4ccc(C(=O)O)cc4n3C[C@@H]3CCO3)CC2)n1)c1ccc(Cl)cc1F` (stereo partly drawn) [Example 3] are 1.38 nM and 106%.
As for `N#Cc1ccc(CSc2cccc(C3=CCN(Cc4nc5ccc(C(=O)O)cc5n4C[C@@H]4CCO4)CC3)n2)c(F)c1` [Example 5, (S)-2-((6-(4-cyano-2-fluorobenzyl)thio-3′,6′-dihydro-[2,4′-bipyridin]-1′(2′H)-yl)methyl)-1-(oxetan-2-ylmethyl)-1H-benzo[d]imidazole-6-carboxylic acid], the EC50 stood at 1.93 nM and the Emax was 110%.
The corresponding values for `N#Cc1ccc(CSc2nc(C3=CCN(Cc4nc5ccc(C(=O)O)cc5n4C[C@@H]4CCO4)CC3)ccc2F)c(F)c1` [Example 6, (S)-2-((6-(4-cyano-2-fluorobenzyl)thio-5-fluoro-3′,6′-dihydro-[2,4′-bipyridin]-1′(2′H)-yl)methyl)-1-(oxetan-2-ylmethyl)-1H-benzo[d]imidazole-6-carboxylic acid] are 0.85 nM and 108%.

The target in a further assay is T2, hERG potassium ion channel (Homo sapiens, UniProt Q12809).
T2 construct: expressed in transfected cells
T2 sequence (Q12809 whole entry): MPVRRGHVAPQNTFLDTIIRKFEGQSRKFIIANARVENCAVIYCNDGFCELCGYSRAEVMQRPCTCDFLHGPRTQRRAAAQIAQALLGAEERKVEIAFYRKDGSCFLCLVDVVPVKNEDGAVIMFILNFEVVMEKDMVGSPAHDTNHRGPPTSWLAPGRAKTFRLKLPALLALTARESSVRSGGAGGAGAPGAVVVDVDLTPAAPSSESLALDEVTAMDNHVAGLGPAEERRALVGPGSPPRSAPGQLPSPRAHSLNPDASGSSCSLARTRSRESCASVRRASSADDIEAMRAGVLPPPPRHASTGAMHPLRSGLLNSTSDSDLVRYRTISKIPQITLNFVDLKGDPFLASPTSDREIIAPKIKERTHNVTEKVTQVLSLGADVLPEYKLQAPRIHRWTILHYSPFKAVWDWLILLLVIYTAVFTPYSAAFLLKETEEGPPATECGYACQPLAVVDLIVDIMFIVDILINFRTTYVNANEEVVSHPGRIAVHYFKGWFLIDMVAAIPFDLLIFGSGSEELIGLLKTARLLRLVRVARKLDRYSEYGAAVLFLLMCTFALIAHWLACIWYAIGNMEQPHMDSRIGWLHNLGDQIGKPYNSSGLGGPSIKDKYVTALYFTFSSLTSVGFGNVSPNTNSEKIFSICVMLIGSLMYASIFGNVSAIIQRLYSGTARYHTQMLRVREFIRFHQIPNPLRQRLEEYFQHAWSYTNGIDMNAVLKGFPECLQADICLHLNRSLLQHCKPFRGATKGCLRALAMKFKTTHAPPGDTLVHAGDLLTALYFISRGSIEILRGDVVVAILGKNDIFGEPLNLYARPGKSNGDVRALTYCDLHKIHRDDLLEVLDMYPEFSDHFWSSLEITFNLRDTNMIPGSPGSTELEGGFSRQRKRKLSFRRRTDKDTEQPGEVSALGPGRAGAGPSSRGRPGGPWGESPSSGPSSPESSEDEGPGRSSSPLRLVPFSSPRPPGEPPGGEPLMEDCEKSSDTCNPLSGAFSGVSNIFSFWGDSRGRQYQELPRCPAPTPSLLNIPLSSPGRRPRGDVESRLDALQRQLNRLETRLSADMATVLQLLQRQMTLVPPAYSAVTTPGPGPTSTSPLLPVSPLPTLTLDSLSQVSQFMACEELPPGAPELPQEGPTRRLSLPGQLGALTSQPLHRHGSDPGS
Nature of the assay: Blocking effect on hERG potassium currents, automated patch clamp in HEK293-hERG cells. The assay is classed as cell-based. As to conditions: automated patch clamp (Patchliner). The protocol:
The blocking effect of hERG potassium currents by the compounds of the present disclosure was tested in a stable cell strain transfected with an hERG potassium channel using an automated patch clamp.
HEK293 cell lines were transfected with pCDNA3.1(+) from which the hERG gene had been constructed, and then stably-expressed monoclonal HEK293-hERG cell strains were selected by addition of G418. Stably-expressed HEK293-hERG cell strains were subcultured at a density of 1:4 in an MEM/EBSS medium (10% FBS, […] G418, 1% MEM non-essential amino acid solution (100×), 1% sodium pyruvate solution) and subjected to an automated patch clamp experiment within 48-72 h after the start of the culture. On the day of experiment, the cells were digested with […] pancreatin (life technologies, 12563-029), collected by centrifugation and resuspended in an extracellular fluid (140 mM NaCl, 4 mM KCl, 1 mM MgCl2, 2 mM CaCl2, 5 mMD glucose monohydrate, 10 mM HEPES, pH 7.4, 298 mOsmol) to prepare a cell suspension. The cell suspension was placed on the cell bank of the Patchliner instrument that transferred the cells to the chip (NPC-16) using a negative pressure controller. […] The currents at various concentrations of the compound and in the blank control were analyzed by data analysis software provided by HEAK EPC10 patch clamp amplifier (Nanion) and Pathlinersoftware and Pathcontrol HTsoftware. […]
A general note: hERG is a cardiac potassium channel; its block is linked to QT prolongation.
As to `C[C@]1(c2ccc(Cl)cc2F)Oc2cccc(C3=CCN(Cc4nc5ccc(C(=O)O)cc5n4C[C@@H]4CCO4)CC3)c2O1` [Example 4, 2-((4-((S)-2-(4-chloro-2-fluorophenyl)-2-methylbenzo[d][1,3]dioxol-4-yl)-3,6-dihydropyridin-1(2H)-yl)methyl)-1-(((S)-oxetan-2-yl)methyl)-1H-benzo[d]imidazole-6-carboxylic acid], the 50% inhibitory concentration (IC50) (as a rule, the concentration at which inhibition is half-maximal) turned out to be 22000 nM.
